From patent publication US9309314B2, “Polypeptides, nucleic acids and uses thereof” (AGENCY FOR SCIENCE, TECHNOLOGY AND RESEARCH (A*STAR), priority 2013, dated 2016)
Entries after “also recorded” stand apart in the source; their conditions may differ.

What was measured:
shELA hESCs = test: Rescue of growth of shELA hESCs by exogenous peptide; assay type: cell-based, human; details: addition of recombinant peptide
Description: (§1) For xCELLigence real time growth assays, 4000 cells were plated per well of an E-plate (ACEA Biosciences) with media changes every 48 hours.
(§2) Recombinant ELA was added at 2.5 uM (or 10 μg/ml). Cell cycle studies were performed with Click-iT EDU staining kit (Invitrogen) and by performing a double thymidine block (2.5 mM thymidine; 16 hour block, 8 hour release, 16 hour block) followed by DAPI staining for DNA content at the indicated times following release.
To generate stable inducible knockdown of ELA in hESCs, the sequence […] (SEQ ID NO: 132) targeting the 3′UTR of ELA was cloned into pSUPERIOR (Oliogoengine) and nucleofected (Lonza) into Shef4TetR5 hESCs (Zafarana et al., 2009). Neomycin-resistant cells were clonally expanded and assayed for doxycycline (20 ng/ml)-inducible knockdown. Data from one representative clone (Shef4TetR5 shELA) are shown in this paper. Shef4TetR5 shβ2M were derived as previously described (Zafarana et al., 2009). Unless otherwise stated, ELA knockdown was induced on Day −4 with 20 ng/ml doxycycline to generate shELA cells.

[1] = system: myocardial ischaemia-reperfusion injury; test: Myocardial ischaemia-reperfusion injury (APELIN publications repeated with ELABELA); assay type: in vivo; details: administered during reperfusion
Text: Peptides 2009; 30:1144-52. • Simpkin J C, Yellon D M, Davidson S M, Lim S Y, Wynne A M, Smith C C. […] Basic Res Cardiol 2007; 102:518-28.

hECs = test: Growth and survival of hECs with recombinant ELA; assay type: cell-based, human; details: multipotent hECs
Description: (§3) Primary human fibroblasts, SW1353 chondrosarcoma (ATCC) and NTERA2 hECs (a gift from Barbara Knowles and Davor Solter) were grown in Dulbecco's modified Eagle's medium (DMEM) with 10% FBS (Hyclone), 2 mM GlutaMAX™ (Invitrogen) and 1 mM sodium pyruvate.
as §1, §2

other tested cell types = test: Cellular uptake of recombinant ELA in other tested cell types; assay type: cell-based; details: other tested cell types than hESCs
[2] = system: pulmonary arterial hypertension; test: Pulmonary arterial hypertension (APELIN publications repeated with ELABELA); details: in vivo
Text: J Clin Invest 2011; 121:3735-46.
Am J Physiol Heart Circ Physiol 2009; 296:H2007-14.

hESCs [3] = test: Embryoid body differentiation of ELA-treated hESCs (qPCR); assay type: cell-based, human
Description: Embryoid body differentiation was performed by plating 1 million cells per well of an Aggrewell 400 plate in Aggrewell Medium (Stem Cell Technologies) followed by harvesting and replating into low-adhesion plates (Corning).
(§4) After the indicated time periods, embryoid bodies were harvested and RNA extracted using RNeasy kit […]. qPCR reactions were carried out using either Universal FastStart SYBR Green Mastermix (Roche) or using the Universal Probe Library system (Roche) in tandem with Taqman Fast Mastermix (Invitrogen). Primer sequences can be found in Table E1.

[4] = system: mesendodermal genes including GATA6, GATA4, FOXA2, EOMES and BRA; test: qPCR of mesendodermal markers in hESCs; assay type: cell-based, human
Description: as §4

[5] = system: human chondrosarcoma cell line; test: Growth and survival of chondrosarcoma cells with recombinant ELA; assay type: cell-based; details: unipotent human chondrosarcoma cells
Description: as §3, §1, §2

heart failure = test: Heart failure (APELIN publications repeated with ELABELA); details: in vivo
Text: Nature 2012 Aug. […] J Clin Invest. 2013 Nov. 1.

[6] = system: primary human fibroblasts; test: Growth and survival of primary fibroblasts with recombinant ELA; assay type: cell-based; details: primary fibroblast cells
Description: as §3, §1, §2

SSEA3 and TRA-1-60 = test: FACs of stem cell surface markers in ELA-treated hESCs; assay type: cell-based, human; details: hESCs treated with recombinant ELA
hESCs [7] = test: Directed endoderm differentiation of hESCs (SOX17+ cell count); assay type: cell-based, human; details: 2.5 uM ELA peptide up to day 3
Description: Shef4TetR5-shELA and Shef4TetR5-shβ2M cells were cultured in the presence (shELA and shβ2M respectively) or absence (Control) of 20 ng/ml doxycycline for 1 passage (4 days) and dissociated with Accutase. […] 24 hours later, the media was changed to Endo differentiation media 1 [RPMI 1640 (Gibco), 1X B-27 supplement (Invitrogen), 50 ng/ml of Activin A (R&D Systems), 25 ng/ml BMP4 (R&D Systems) and 50 ng/ml bFGF (Invitrogen)] for 3 days. On day 3, the media was changed to Endo differentiation media 2 (RPMI 1640, B27, 50 ng/ml Activin) for 2 more days of culture. Rescue experiments were performed by adding 2.5 uM of ELA peptide to Shef4TetR5-shELA concurrently with doxycycline up to day 3, when the ELA peptide is no longer necessary as judged by downregulation of endogenous ELA.
On day 5, cells were fixed with 4% paraformaldehyde and stained with α SOX17 (AF1924, R&D Systems) and DAPI. For each well, three different randomly selected fields were imaged and the number of nuclei staining positive of SOX17 and DAPI were counted using a custom macro in ImageJ. A minimum of two wells per condition was used for each experiment, and a minimum of two independent experiments were performed to generate the results.

atherosclerosis = test: Atherosclerosis (APELIN publication repeated with ELABELA); details: mouse, in vivo
Text: J Clin Invest 2008; 118:3343-54.
The experiments described in the above publication are repeated, with the replacement of APELIN with ELABELA.

erectile function = test: Erectile dysfunction (APELIN publication repeated with ELABELA); details: mouse, in vivo
Text: J Sex Med. 2013 Apr. 11. doi: 10.1111/jsm.12158.

blood pressure = test: Hypertension (APELIN publications repeated with ELABELA); details: in vivo
Text: Regulatory Peptides. 2001; 99(2-3):87-92. • Cheng X, Cheng X S, Pang C C. […] European Journal of Pharmacology. […] Journal of the American College of Cardiology. 2008; 52(11):908-913.

hESCs [8] = test: Uptake of FITC-labeled recombinant ELA by hESCs (immunofluorescence); assay type: cell-based, human; details: peptide labeled with FITC
hESCs [9] = test: hESC growth assays (cell counts, colony size, xCELLigence real time cell index); assay type: cell-based, human
Description: Feeder-free hESCs were cultured in clumps in mTSER1 (Stem Cell Technologies) on Matrigel (BD 354277).
hESCs were dissociated into single cells using Accutase (Stem Cell Technologies) and plated in the presence of 10 μM Y-27632 (ROCK inhibitor) for 12 hours (Watanabe et al., 2007).
as §1, §2

myocardial infarction = test: Coronary artery disease / myocardial infarction (APELIN publications repeated with ELABELA); assay type: in vivo, rat
Text: Peptides 2013; 46:76-82. • Li L, Zeng H, Chen J X. Apelin-13 increases myocardial progenitor cells and improves repair postmyocardial infarction. Am J Physiol Heart Circ Physiol 2012; 303:H605-18. • Pisarenko O I, Serebryakova L I, Pelogeykina Y A, et al. In vivo reduction of reperfusion injury to the heart with apelin-12 peptide in rats. Bull Exp Biol Med 2011; 152:79-82.

QRPVNLTMRRKLRKHNCLQRRCMPLHSRVPFP (listed as Homo sapiens) [ELA, synthetically produced recombinant mature human ELABELA, a 32 amino-acid peptide hormone]
rescue of the growth of shELA hESCs (shELA hESCs): sufficient to rescue; also recorded: entirely rescued to normal levels | infarct size [1]: significantly decrease infarct size | pro-growth and survival properties (hECs): not seen; also recorded: exerted activity only on hESCs cultures | rapid cellular uptake (other tested cell types): not in other tested cell types | symptoms of pulmonary arterial hypertension [2]: alleviates symptoms of pulmonary arterial hypertension | lineage commitment during embryoid body differentiation (hESCs [3]): can differentiate into all three germ layers; also recorded: not biased towards mesoderm or endoderm lineages | expression of mesendodermal markers [4]: significantly higher levels of mesendodermal markers; also recorded: consistently upregulated | pro-growth and survival properties [5]: not seen; also recorded: exerted activity only on hESCs cultures | protection against heart failure (heart failure): able to provide protection against heart failure | pro-growth and survival properties [6]: not seen; also recorded: exerted activity only on hESCs cultures | HIV-1 entry (HIV-1): prevents or slows-down HIV-1 entry | levels of cell surface markers SSEA3 and TRA-1-60 (SSEA3 and TRA-1-60): do not lose; also recorded: unchanged levels | rescue of endoderm differentiation of shELA hESCs (hESCs [7]): entirely rescued; also recorded: sufficient to rescue | Ang II-mediated increase in atherosclerosis burden (atherosclerosis): mitigates the Ang II-mediated increase in atherosclerosis burden | abdominal aortic aneurysm formation and rupture (atherosclerosis): inhibit abdominal aortic aneurysm formation and rupture | protection against atherosclerosis (atherosclerosis): can protect against atherosclerosis | erectile function (erectile function): significant restoration of erectile function | blood pressure (blood pressure): causes a reduction in blood pressure | uptake by hESCs (hESCs [8]): rapidly up-taken; also recorded: rapidly taken up | growth of hESCs by cell numbers (hESCs [9]; FIG. 3C, relative to untreated hESCs): increased growth | survival of hESCs (hESCs [9]; FIG. 3D, relative to untreated hESCs): increased survival | concentration range in which the recombinant peptide is bioactive (hESCs [9]; hESCs, endogenous ELA in conditioned media is in the nM range): μM range | myocardial infarction size and damage to cardiomyocytes (myocardial infarction; injection): limit the myocardial infarction size and reduce damage to cardiomyocytes | angiogenesis and cardiac repair postmyocardial infarction (myocardial infarction; rat, in vivo): promote angiogenesis and ameliorate cardiac repair postmyocardial infarction
